This note sets out measurements from US20100119599A1 (ARCHER PHARMACEUTICALS, INC., priority 2006, published 2010).

One assay relates to Aβ1-40. Put plainly: Measurement of Aβ1-40 in culture medium of 7W WT APP751 CHO cells by ELISA. The assay is classed as cell-based, Chinese hamster. The following applies: for activity at 5 µM: Cricetulus griseus, Table 1, 5 μM test compound, CHO cells stably transfected with human APP751, culture medium, ELISA, control DMSO, 0 = no detectable amount; for Aβ1-40 (% of control): CHO cells that overexpress APP751, zero = below the detection limit of the assay. On the technique in general: ELISA stands for enzyme-linked immunosorbent assay.

A further assay relates to Aβ1-42. Put plainly: Measurement of Aβ1-42 in culture medium of 7W WT APP751 CHO cells by ELISA. Format: cell-based, Chinese hamster. The following applies: for activity at 5 µM: Cricetulus griseus, Table 1, 5 μM test compound, CHO cells stably transfected with human APP751, culture medium, ELISA, control DMSO, 0 = no detectable amount, read-out: Aβ1-42 (% of control); for Aβ1-42 (% of control): CHO cells that overexpress APP751, zero = below the detection limit of the assay.
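Further: 5 µM test compound but RI-coded compounds at 10 µM for 24 hours.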

On to `CCCCOC(=O)C1=C(C)NC2=C(C(=O)CCC2)C1c1ccccc1OC` (stereo not shown) [ST013324, butyl 4-(2-methoxyphenyl)-2-methyl-5-oxo-1,4,6,7,8-pentahydroquinoline-3-carboxylate], for which the figures for the activity at 5 µM in the assay on Aβ1-40 and with Aβ1-42 were 54.3% and 93.7%, respectively.

For the molecule `CCCCOC(=O)C1=C(C)NC2=C(C(=O)CCC2)C1c1ccccc1OCCC` (stereo not shown) [ST013325, butyl 2-methyl-5-oxo-4-(2-propoxyphenyl)-1,4,6,7,8-pentahydroquinoline-3-carboxylate], the activity at 5 µM in the assay with Aβ1-40 was 28.5%; in the assay with Aβ1-42, 69.4%.

As to `COc1ccc(C2C(C(=O)OC3CCCC3)=C(C)NC3=C2C(=O)CC(C)(C)C3)c(OC)c1OC` (stereo not shown) [ST013328, cyclopentyl 2,7,7-trimethyl-5-oxo-4-(2,3,4-trimethoxyphenyl)-1,4,6,7,8-pentahydroquinoline-3-carboxylate], the activity at 5 µM was 43.1% with Aβ1-40 and 93.4% in the assay on Aβ1-42.

Consider `CCCCOC(=O)C1=C(C)NC2=C(C(=O)CCC2)C1c1ccccc1OCCCC` (stereo not shown) [ST013330, butyl 4-(2-butoxyphenyl)-2-methyl-5-oxo-1,4,6,7,8-pentahydroquinoline-3-carboxylate], for which the activity at 5 µM is 38% with Aβ1-40 and 86.5% in the assay with Aβ1-42.

As for `COC(=O)C1=C(C)NC2=C(C(=O)CC(c3ccc(OC)cc3)C2)C1c1ccc(C)cc1` (stereo not shown) [ST013332, methyl 7-(4-methoxyphenyl)-2-methyl-4-(4-methylphenyl)-5-oxo-1,4,6,7,8-pentahydroquinoline-3-carboxylate], the activity at 5 µM in the assay with Aβ1-40 amounted to 45.1%; with Aβ1-42 it was 68%.

Consider `COC(=O)C1=C(C)NC2=C(C(=O)CC(c3ccc(OC)cc3)C2)C1c1cccc([N+](=O)[O-])c1` (stereo not shown) [ST013333, methyl 7-(4-methoxyphenyl)-2-methyl-4-(3-nitrophenyl)-5-oxo-1,4,6,7,8-pentahydroquinoline-3-carboxylate], for which the activity at 5 µM worked out at 48.4% with Aβ1-40 and 51.6% in the assay with Aβ1-42.

On to `COc1ccccc1C1C(C(=O)OC2CCCCC2)=C(C)NC2=C1C(=O)CCC2` (stereo not shown) [ST013339, cyclohexyl 4-(2-methoxyphenyl)-2-methyl-5-oxo-1,4,6,7,8-pentahydroquinoline-3-carboxylate], for which the figures for the activity at 5 µM in the assay with Aβ1-40 and in the assay with Aβ1-42 were 43.6% and 6.87%, respectively.

In the case of `CCOCCOC(=O)C1=C(C)NC2=C(C(=O)CCC2)C1c1ccc(OC)c(OC)c1` (stereo not shown) [ST013341, 2-ethoxyethyl 4-(3,4-dimethoxyphenyl)-2-methyl-5-oxo-1,4,6,7,8-pentahydroquinoline-3-carboxylate], the results for the activity at 5 µM in the assay on Aβ1-40 and in the assay with Aβ1-42 were 73% and 73.9%, respectively.

As for `CCOCCOC(=O)C1=C(C)NC2=C(C(=O)CCC2)C1c1cccc(O)c1` (stereo not shown) [ST013342, 2-ethoxyethyl 4-(3-hydroxyphenyl)-2-methyl-5-oxo-1,4,6,7,8-pentahydroquinoline-3-carboxylate], the activity at 5 µM with Aβ1-40 was 69.7%; with Aβ1-42, 55.5%.

Regarding `CCOCCOC(=O)C1=C(C)NC2=C(C(=O)CC(C)(C)C2)C1c1ccc(O)c(OC)c1` (stereo not shown) [ST013343, 2-ethoxyethyl 4-(4-hydroxy-3-methoxyphenyl)-2,7,7-trimethyl-5-oxo-1,4,6,7,8-pentahydroquinoline-3-carboxylate], the activity at 5 µM was determined as 61.1% in the assay with Aβ1-40 and 83% in the assay on Aβ1-42.

`CCOCCOC(=O)C1=C(C)NC2=C(C(=O)CCC2)C1c1ccc(CC)cc1` (stereo not shown) [ST013344, 2-ethoxyethyl 4-(4-ethylphenyl)-2-methyl-5-oxo-1,4,6,7,8-pentahydroquinoline-3-carboxylate]: the activity at 5 µM with Aβ1-40 turned out to be 54.4%; in the assay on Aβ1-42 it was 86.6%.

For the molecule `CCOCCOC(=O)C1=C(C)NC2=C(C(=O)CCC2)C1c1cc(OC)c(OC)c(OC)c1` (stereo not shown) [ST013345, 2-ethoxyethyl 2-methyl-5-oxo-4-(3,4,5-trimethoxyphenyl)-1,4,6,7,8-pentahydroquinoline-3-carboxylate], the values for the activity at 5 µM with Aβ1-40 and in the assay with Aβ1-42 were 58.4% and 75.4%, respectively.

Take `CCCCCOC(=O)C1=C(C)NC2=C(C(=O)CCC2)C1c1ccc(OC)c(OC)c1OC` (stereo not shown) [ST013346, pentyl 2-methyl-5-oxo-4-(2,3,4-trimethoxyphenyl)-1,4,6,7,8-pentahydroquinoline-3-carboxylate]: the figures for the activity at 5 µM in the assay with Aβ1-40 and in the assay with Aβ1-42 were 16.3% and 77.7%, respectively.

Turning to `CC1=C(C(=O)OC2CCCCC2)C(c2ccc(Cl)c(Cl)c2)C2=C(CC(c3ccccc3)CC2=O)N1` (stereo not shown) [ST013350, cyclohexyl 4-(3,4-dichlorophenyl)-2-methyl-5-oxo-7-phenyl-1,4,6,7,8-pentahydroquinoline-3-carboxylate], the activity at 5 µM in the assay with Aβ1-40 is 25.1%; in the assay with Aβ1-42 it was 95.6%.

In the case of `CC1=C(C(=O)OC2CCCCC2)C(c2ccc(Cl)cc2)C2=C(CC(c3ccccc3)CC2=O)N1` (stereo not shown) [ST013352, cyclohexyl 4-(4-chlorophenyl)-2-methyl-5-oxo-7-phenyl-1,4,6,7,8-pentahydroquinoline-3-carboxylate], the figures for the activity at 5 µM in the assay on Aβ1-40 and in the assay on Aβ1-42 were 22.4% and 84%, respectively.

With `COCCOC(=O)C1=C(C)NC2=C(C(=O)CC(C)(C)C2)C1c1cc(OC)c(OC)c(OC)c1` (stereo not shown) [ST013356, 2-methoxyethyl 2,7,7-trimethyl-5-oxo-4-(3,4,5-trimethoxyphenyl)-1,4,6,7,8-pentahydroquinoline-3-carboxylate], the activity at 5 µM with Aβ1-40 was 62.7%; in the assay on Aβ1-42, 82.5%.

For the molecule `COCCOC(=O)C1=C(C)NC2=C(C(=O)CCC2)C1c1cc(Br)c(O)c(OC)c1` (stereo not shown) [ST013357, 2-methoxyethyl 4-(3-bromo-4-hydroxy-5-methoxyphenyl)-2-methyl-5-oxo-1,4,6,7,8-pentahydroquinoline-3-carboxylate], the results for the activity at 5 µM in the assay with Aβ1-40 and with Aβ1-42 were 62.4% and 95.2%, respectively.

With `COCCOC(=O)C1=C(C)NC2=C(C(=O)CCC2)C1c1ccccc1OC` (stereo not shown) [ST013365, 2-methoxyethyl 4-(2-methoxyphenyl)-2-methyl-5-oxo-1,4,6,7,8-pentahydroquinoline-3-carboxylate], the activity at 5 µM in the assay on Aβ1-40 came out at 84.5%; with Aβ1-42, 56%.

Consider `COc1cc(C2C(C(=O)OC3CCCCC3)=C(C)NC3=C2C(=O)CC(c2ccccc2)C3)ccc1O` (stereo not shown) [ST013387, cyclohexyl 4-(4-hydroxy-3-methoxyphenyl)-2-methyl-5-oxo-7-phenyl-1,4,6,7,8-pentahydroquinoline-3-carboxylate], for which the activity at 5 µM with Aβ1-40 is 40%; in the assay with Aβ1-42, 26.4%.

Regarding `CCc1ccc(C2C(C(=O)OC3CCCCC3)=C(C)NC3=C2C(=O)CC(c2ccccc2)C3)cc1` (stereo not shown) [ST013389, cyclohexyl 4-(4-ethylphenyl)-2-methyl-5-oxo-7-phenyl-1,4,6,7,8-pentahydroquinoline-3-carboxylate], the activity at 5 µM in the assay on Aβ1-40 was 37.4%; in the assay with Aβ1-42 it was 94.4%.

Turning to `CCc1ccc(C2C(C(=O)OCc3ccccc3)=C(C)NC3=C2C(=O)CC(c2ccccc2)C3)cc1` (stereo not shown) [ST013390, phenylmethyl 4-(4-ethylphenyl)-2-methyl-5-oxo-7-phenyl-1,4,6,7,8-pentahydroquinoline-3-carboxylate], the activity at 5 µM in the assay with Aβ1-40 was 23.4%; in the assay with Aβ1-42, 98.3%.

Turning to `CC1=C(C#N)C(c2ccc(Cl)cc2)C2=C(CC(C)(C)CC2=O)N1` (stereo not shown) [ST013410, 4-(4-chlorophenyl)-2,7,7-trimethyl-5-oxo-1,4,6,7,8-pentahydroquinoline-3-carbonitrile], the activity at 5 µM was 22% in the assay with Aβ1-40 and 26% in the assay on Aβ1-42.

In the case of `CCCCOC(=O)C1=C(C)NC2=C(C(=O)CCC2)C1c1cccc(Cl)c1` (stereo not shown) [ST013428, butyl 4-(3-chlorophenyl)-2-methyl-5-oxo-1,4,6,7,8-pentahydroquinoline-3-carboxylate], the activity at 5 µM with Aβ1-40 was 25.1%; in the assay with Aβ1-42, 40.9%.

As for `COc1ccc(C2C(C(=O)OC3CCCCC3)=C(C)NC3=C2C(=O)CCC3)cc1Br` (stereo not shown) [ST013429, cyclohexyl 4-(3-bromo-4-methoxyphenyl)-2-methyl-5-oxo-1,4,6,7,8-pentahydroquinoline-3-carboxylate], the activity at 5 µM was found to be 31.9% in the assay on Aβ1-40 and 45.4% in the assay with Aβ1-42.

`CCOCCOC(=O)C1=C(C)NC2=C(C(=O)CCC2)C1c1ccc(OC(C)=O)cc1` (stereo not shown) [ST013435, 4-{3-[(2-ethoxyethyl)oxycarbonyl]-2-methyl-5-oxo-4-1,4,6,7,8-pentahydroquinolyl}phenyl acetate]: the activity at 5 µM in the assay on Aβ1-40 came out at 64.7%; in the assay on Aβ1-42 it was 70.1%.

For the molecule `CC1=C(C(=O)OC2CCCCC2)C(c2ccc(C)cc2)C2=C(CC(c3ccccc3)CC2=O)N1` (stereo not shown) [ST013438, cyclohexyl 2-methyl-4-(4-methylphenyl)-5-oxo-7-phenyl-1,4,6,7,8-pentahydroquinoline-3-carboxylate], the figures for the activity at 5 µM in the assay with Aβ1-40 and with Aβ1-42 were 31.5% and 93.5%, respectively.

`CC1=C(C(=O)OC(C)C)C(c2cccc(Cl)c2Cl)C2=C(CC(c3ccccc3)CC2=O)N1` (stereo not shown) [ST013439, methylethyl 4-(2,3-dichlorophenyl)-2-methyl-5-oxo-7-phenyl-1,4,6,7,8-pentahydroquinoline-3-carboxylate]: the activity at 5 µM was 19.7% in the assay on Aβ1-40 and 80.3% with Aβ1-42.

As for `COC(=O)CSC1=C(C#N)C(c2cccs2)C(C(C)=O)=C(C)N1` (stereo not shown) [ST014038, methyl 2-(5-acetyl-3-cyano-6-methyl-4-(2-thienyl)-2-1,4-dihydropyridylthio)acetate], in the assay with Aβ1-40, the “Aβ1-40 (% of control)” value is 29.98 % of control. In addition, the “Aβ1-42 (% of control)” value in the assay with Aβ1-42 is recorded as 21.82 % of control.

Consider `COC(=O)C1=C(C)NC(SCC(=O)c2cccs2)=C(C#N)C1c1ccc2c(c1)OCCO2` (stereo not shown) [ST014052, methyl 4-(2H,3H-benzo[3,4-e]1,4-dioxan-6-yl)-5-cyano-2-methyl-6-(2-oxo-2-(2-thienyl)ethylthio)-1,4-dihydropyridine-3-carboxylate], for which the “Aβ1-40 (% of control)” value with Aβ1-40 is 49 % of control. The “Aβ1-42 (% of control)” value with Aβ1-42 is 74.69 % of control.
